The record followed here is patent EP0336068A1, “Phenoxyalkoxy-3,4-dihydro-2H-1-benzopyran derivatives” (F. HOFFMANN-LA ROCHE AG, priority 1988, dated 1989).

For the experiment, the system named is Antibiotic-Induced Colitis in Hamsters. Kind of experiment: Antibiotic-induced colitis in hamsters (in vivo), survival. Further details: species or system Syrian hamsters. The settings on record: given orally at 20 micromoles per kilogram; colitis induced by 175 mg/kg clindamycin intraperitoneally; first dose about seven hours after injection, then twice a day for four more days; Hazard Ratio >1.0 = therapy prolongs survival versus vehicle. On the procedure:
Antibiotic-Induced Colitis in Hamsters (In Vivo):
Male Syrian hamsters (LUG), weighing 80 to 120 g, were each given a single dose of 175 mg/kg of clindamycin-phosphate or of clindamycin-hydrochloride intraperitoneally, to induce colitis. Approximately seven hours after injection, the animals wer given the test compound orally or intraperitoneally and the therapy was continued twice a day for a period of four more days. The effect of the therapy was measured by use of the Hazard Ratio, which is the ratio of the mortality of the animals treated with the test compound contained in a vehicle to the mortality of the animals treated with the vehicle containing none of the test compound. The mortality was determined for the test compound-treated groups and for the vehicle-treated groups, respectively, twice daily, and was evaluated by comparing the survival curves of each group. The Kaplan-Meier estimate of the survival curve was calculated for each group and the Mantel-Cox (logrank) test was used to compare the survival curve of each test compound-treated (therapy) group to that of the corresponding vehicle control group.

Structures are written as SMILES.

Regarding `CCCCCCCCOC(=O)C1CCc2cc(C(C)=O)c(OCCCCCOc3ccc(C(C)=O)c(O)c3CCC)cc2O1` (racemic) [racemic 6-acetyl-7-[5-(4-acetyl-3-hydroxy-2-propylphenoxy)pentyloxy]-3,4-dihydro-2H-1-benzopyran-2-carboxylic acid n-octyl ester], the “Hazard Ratio” value amounted to 2.0.
